This passage reports AC50 results from ChEMBL document CHEMBL5291721, “A preclinical secondary pharmacology resource illuminates target-adverse drug reaction associations of marketed drugs” (Nat Commun, 2023).

Test [1] deals with Gamma-aminobutyric acid receptor subunit alpha-1/alpha-2/beta-2/gamma-2 (Homo sapiens, UniProt P14867+P18507+P47869+P47870). The format is functional, cell-based.
The target in test [2] is 5-hydroxytryptamine receptor 2B (Homo sapiens, UniProt P41595).
Test [3] has as its target T1, 5-hydroxytryptamine receptor 1A (Homo sapiens, UniProt P08908).
T1 sequence (P08908 whole entry): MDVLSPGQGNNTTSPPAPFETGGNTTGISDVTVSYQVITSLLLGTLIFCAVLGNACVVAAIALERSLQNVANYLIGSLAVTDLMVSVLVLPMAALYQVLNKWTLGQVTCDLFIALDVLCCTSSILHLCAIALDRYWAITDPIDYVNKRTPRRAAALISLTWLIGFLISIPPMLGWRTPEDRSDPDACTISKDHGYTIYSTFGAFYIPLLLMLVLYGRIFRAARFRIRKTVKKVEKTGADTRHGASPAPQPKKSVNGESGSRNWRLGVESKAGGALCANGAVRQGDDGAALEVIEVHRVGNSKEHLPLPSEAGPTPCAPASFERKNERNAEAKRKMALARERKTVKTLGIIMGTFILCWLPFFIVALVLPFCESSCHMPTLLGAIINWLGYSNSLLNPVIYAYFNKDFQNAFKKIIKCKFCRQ

The next test concerns the target Glucagon receptor (Homo sapiens, UniProt P47871).
Test [4] has as its target T2, Alpha-2A adrenergic receptor (Homo sapiens, UniProt P08913).
T2 sequence (P08913 whole entry): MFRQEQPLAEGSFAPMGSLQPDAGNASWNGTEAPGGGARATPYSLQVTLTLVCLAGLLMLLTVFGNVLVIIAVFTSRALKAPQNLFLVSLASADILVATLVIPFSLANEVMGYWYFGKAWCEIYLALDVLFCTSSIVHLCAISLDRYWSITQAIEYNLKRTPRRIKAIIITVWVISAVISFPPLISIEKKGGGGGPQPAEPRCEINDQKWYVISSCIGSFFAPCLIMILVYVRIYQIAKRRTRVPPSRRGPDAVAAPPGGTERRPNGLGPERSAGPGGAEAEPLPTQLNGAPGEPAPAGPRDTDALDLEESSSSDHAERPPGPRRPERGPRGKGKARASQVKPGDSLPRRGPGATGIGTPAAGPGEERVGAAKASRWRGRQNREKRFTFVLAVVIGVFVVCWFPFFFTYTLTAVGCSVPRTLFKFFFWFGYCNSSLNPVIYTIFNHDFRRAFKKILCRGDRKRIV

The target of a further test is T3, Progesterone receptor (Homo sapiens, UniProt P06401).
T3 sequence (P06401 whole entry): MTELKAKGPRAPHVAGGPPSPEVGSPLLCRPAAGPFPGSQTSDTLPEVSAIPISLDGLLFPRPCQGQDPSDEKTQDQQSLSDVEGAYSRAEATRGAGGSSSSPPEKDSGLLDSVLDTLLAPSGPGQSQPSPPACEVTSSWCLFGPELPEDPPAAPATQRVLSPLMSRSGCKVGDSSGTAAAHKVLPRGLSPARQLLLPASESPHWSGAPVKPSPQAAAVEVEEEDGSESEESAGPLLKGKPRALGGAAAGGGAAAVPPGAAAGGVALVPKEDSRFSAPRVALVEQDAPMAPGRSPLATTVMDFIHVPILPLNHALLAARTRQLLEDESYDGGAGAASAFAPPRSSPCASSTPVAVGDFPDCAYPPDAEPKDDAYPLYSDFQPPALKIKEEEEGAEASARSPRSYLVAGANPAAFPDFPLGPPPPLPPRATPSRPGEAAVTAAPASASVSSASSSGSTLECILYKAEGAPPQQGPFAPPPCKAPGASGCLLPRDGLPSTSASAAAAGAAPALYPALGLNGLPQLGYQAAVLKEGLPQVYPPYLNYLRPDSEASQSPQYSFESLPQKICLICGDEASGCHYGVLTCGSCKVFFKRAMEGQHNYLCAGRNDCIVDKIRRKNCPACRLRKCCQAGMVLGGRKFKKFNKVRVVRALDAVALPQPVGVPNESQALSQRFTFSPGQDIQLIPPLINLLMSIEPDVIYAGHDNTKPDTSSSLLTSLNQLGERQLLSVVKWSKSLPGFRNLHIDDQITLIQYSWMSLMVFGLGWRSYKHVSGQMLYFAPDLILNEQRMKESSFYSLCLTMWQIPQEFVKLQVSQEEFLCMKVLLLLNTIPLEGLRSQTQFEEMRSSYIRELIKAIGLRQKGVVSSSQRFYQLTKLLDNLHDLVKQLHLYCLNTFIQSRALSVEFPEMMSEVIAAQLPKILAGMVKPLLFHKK

The target in test [5] is T4, Neuropeptide Y receptor type 2 (Homo sapiens, UniProt P49146).
T4 sequence (P49146 whole entry): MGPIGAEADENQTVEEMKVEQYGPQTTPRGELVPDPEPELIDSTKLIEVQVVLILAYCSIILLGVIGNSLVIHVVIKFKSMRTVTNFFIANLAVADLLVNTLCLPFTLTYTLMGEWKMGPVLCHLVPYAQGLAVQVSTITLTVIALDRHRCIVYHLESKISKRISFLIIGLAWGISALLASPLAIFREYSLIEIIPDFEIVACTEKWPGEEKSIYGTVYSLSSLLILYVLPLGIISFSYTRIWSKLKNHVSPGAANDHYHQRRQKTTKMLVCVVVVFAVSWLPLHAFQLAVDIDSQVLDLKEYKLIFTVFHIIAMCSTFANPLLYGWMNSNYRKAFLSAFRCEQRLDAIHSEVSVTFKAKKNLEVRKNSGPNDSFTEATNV

The target in test [6] is T5, Endothelin receptor type B (Homo sapiens, UniProt P24530).
T5 sequence (P24530 whole entry): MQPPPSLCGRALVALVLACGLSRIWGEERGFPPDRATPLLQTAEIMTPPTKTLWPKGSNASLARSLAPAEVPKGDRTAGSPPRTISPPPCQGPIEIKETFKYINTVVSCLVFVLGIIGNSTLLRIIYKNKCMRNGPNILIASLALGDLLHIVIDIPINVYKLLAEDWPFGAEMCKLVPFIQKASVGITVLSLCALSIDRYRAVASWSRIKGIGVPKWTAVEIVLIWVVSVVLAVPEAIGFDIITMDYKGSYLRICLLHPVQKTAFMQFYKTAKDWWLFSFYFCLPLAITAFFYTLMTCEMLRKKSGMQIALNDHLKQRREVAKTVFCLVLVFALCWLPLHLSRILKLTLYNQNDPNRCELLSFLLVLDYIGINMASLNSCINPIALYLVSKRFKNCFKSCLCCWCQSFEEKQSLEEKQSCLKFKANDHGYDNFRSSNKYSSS

In test [7] the target is 5-hydroxytryptamine receptor 2A (Homo sapiens, UniProt P28223).

The term AC50 denotes the midpoint of the concentration-response curve, whichever way the signal moves. High values mean activity only at high concentration, low ones activity at low concentration.
Further: assay procedure not described here.

5-hydroxytryptamine receptor 2B, sequence (P41595 whole entry): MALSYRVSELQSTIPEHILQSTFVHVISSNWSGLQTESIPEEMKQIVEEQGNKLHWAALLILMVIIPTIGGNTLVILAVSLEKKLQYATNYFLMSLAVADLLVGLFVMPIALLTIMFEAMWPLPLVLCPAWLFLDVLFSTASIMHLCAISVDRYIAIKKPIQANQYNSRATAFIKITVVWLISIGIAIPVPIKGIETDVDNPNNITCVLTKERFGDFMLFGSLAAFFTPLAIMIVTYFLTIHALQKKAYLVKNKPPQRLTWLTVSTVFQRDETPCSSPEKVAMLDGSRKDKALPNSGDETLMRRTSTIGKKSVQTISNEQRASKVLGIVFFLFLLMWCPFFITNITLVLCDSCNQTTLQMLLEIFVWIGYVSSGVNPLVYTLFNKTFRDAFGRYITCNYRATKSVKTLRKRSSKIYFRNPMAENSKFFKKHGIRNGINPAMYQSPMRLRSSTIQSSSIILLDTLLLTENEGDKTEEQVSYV
Gamma-aminobutyric acid receptor subunit alpha-1/alpha-2/beta-2/gamma-2, sequence (P14867 whole entry): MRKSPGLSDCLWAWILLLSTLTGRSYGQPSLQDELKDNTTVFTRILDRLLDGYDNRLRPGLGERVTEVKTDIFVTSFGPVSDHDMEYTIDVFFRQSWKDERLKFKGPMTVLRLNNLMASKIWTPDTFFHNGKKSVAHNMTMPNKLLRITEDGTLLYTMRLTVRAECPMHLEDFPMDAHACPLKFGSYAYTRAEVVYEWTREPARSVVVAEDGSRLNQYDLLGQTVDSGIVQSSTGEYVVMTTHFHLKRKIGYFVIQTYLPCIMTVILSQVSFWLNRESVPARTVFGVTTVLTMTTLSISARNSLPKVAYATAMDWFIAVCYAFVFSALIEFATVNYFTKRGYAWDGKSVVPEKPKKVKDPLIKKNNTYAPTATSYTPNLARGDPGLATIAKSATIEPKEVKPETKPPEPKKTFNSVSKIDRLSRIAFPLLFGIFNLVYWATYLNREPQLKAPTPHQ
Gamma-aminobutyric acid receptor subunit alpha-1/alpha-2/beta-2/gamma-2, sequence (P47870 whole entry): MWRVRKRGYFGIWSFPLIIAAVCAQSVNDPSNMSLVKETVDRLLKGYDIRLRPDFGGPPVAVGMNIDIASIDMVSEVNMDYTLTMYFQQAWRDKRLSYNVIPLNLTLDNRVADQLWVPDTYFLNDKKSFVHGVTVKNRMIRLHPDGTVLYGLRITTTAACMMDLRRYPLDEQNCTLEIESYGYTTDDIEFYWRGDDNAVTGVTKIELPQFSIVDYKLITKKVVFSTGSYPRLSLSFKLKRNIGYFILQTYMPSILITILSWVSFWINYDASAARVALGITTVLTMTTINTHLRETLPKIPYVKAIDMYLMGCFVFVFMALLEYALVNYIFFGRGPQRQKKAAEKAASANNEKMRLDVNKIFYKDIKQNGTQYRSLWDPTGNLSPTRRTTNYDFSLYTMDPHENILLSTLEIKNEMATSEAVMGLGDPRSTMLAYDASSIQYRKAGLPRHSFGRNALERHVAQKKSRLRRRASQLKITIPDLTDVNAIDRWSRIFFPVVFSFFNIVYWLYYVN
Gamma-aminobutyric acid receptor subunit alpha-1/alpha-2/beta-2/gamma-2, sequence (P18507 whole entry): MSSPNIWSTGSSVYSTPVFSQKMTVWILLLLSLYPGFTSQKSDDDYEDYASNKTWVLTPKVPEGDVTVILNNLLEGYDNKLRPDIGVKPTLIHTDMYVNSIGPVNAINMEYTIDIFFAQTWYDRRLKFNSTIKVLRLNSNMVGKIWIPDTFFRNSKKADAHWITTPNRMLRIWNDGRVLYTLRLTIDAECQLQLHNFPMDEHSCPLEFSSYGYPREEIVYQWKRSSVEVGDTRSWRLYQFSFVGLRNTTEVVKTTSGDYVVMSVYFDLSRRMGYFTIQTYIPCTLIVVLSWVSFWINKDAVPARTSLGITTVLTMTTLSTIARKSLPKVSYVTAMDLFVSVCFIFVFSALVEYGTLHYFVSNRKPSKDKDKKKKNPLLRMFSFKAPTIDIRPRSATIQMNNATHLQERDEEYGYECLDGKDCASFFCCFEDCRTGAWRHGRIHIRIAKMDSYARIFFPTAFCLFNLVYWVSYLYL
Gamma-aminobutyric acid receptor subunit alpha-1/alpha-2/beta-2/gamma-2, sequence (P47869 whole entry): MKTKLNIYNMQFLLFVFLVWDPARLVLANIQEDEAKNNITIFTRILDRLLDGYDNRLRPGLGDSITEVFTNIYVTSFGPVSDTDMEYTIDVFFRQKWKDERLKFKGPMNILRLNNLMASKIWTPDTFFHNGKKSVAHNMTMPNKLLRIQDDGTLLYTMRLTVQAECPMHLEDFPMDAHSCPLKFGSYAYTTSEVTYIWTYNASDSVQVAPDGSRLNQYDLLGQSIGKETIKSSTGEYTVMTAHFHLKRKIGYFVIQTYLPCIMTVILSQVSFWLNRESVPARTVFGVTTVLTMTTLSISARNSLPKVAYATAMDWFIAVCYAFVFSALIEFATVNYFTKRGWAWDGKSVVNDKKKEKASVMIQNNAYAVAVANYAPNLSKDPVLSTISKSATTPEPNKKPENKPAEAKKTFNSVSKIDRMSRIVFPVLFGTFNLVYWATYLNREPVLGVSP
5-hydroxytryptamine receptor 2A, sequence (P28223 whole entry): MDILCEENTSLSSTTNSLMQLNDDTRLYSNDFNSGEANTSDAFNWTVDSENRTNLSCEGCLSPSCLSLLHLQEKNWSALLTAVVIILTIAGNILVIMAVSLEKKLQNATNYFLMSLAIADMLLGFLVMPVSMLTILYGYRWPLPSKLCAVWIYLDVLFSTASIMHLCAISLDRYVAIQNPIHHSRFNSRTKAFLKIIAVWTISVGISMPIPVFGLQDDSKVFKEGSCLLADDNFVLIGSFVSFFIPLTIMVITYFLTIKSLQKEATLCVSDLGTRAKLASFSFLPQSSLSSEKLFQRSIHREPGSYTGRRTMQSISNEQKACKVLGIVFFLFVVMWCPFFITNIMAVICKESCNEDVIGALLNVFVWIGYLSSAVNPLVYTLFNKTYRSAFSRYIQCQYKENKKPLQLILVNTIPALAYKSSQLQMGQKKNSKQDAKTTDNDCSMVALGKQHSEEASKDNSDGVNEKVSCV
Glucagon receptor, sequence (P47871 whole entry): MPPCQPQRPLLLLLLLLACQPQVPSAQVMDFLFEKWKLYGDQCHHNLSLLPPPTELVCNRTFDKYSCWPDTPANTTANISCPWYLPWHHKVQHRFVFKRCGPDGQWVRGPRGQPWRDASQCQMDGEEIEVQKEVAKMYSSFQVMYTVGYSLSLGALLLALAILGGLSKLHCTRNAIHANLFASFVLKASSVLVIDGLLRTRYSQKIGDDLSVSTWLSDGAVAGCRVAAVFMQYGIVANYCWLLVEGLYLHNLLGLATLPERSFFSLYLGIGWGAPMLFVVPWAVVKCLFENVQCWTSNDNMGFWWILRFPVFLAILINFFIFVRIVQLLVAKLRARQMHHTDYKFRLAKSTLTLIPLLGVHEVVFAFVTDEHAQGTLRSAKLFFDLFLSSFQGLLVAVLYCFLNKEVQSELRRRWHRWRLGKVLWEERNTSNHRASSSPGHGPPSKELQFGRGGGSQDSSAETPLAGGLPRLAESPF

On to `CCCCCCC(C)(C)c1cc(O)c2c(c1)OC(C)(C)C1CCC(=O)CC21` (stereo not given) [NABILONE], for which, in test [1], the concentration at half-maximal activity (AC50) was more than 30 µM.

With `O=C1NCCN1CCN1CCC(c2cn(-c3ccc(F)cc3)c3ccc(Cl)cc23)CC1` [SERTINDOLE], the half-maximal activity concentration (AC50) in [2] stood at 12 nM. This counts as double-digit nanomolar.

With `O=C1CN=C(c2ccccc2)c2cc(Cl)ccc2N1CC(F)(F)F` [HALAZEPAM], the concentration at half-maximal activity (AC50) in test [1] was more than 30 µM.

In the case of `NC(=O)C[S+]([O-])C(c1ccccc1)c1ccccc1` (stereo not given) [MODAFINIL], the AC50 was more than 10000 nM in test [2]; more than 10 µM in test [3]; more than 30 µM on Glucagon receptor; more than 10 µM in test [4]; more than 30 µM at Progesterone receptor; more than 30 µM in test [5]. For the same compound, the AC50 in test [6] came out at 23.5 µM.

As for `CCCCCCCCCCCC[N+](C)(C)CCOc1ccccc1` [DOMIPHEN], half-maximal activity in test [7] (AC50) was put at 140 nM.

For `CCCCC(C)(O)C/C=C/[C@H]1[C@H](O)CC(=O)[C@@H]1CCCCCCC(=O)OC` (stereo not given in full) [MISOPROSTOL], in test [1], the AC50 was more than 30 µM.

For the compound `CCCCCCCCOc1ccccc1C(=O)Nc1ccc(C(=O)OCC[N+](C)(CC)CC)cc1` [OTILONIUM BROMIDE], the AC50 in [2] is 712 nM; in test [3], more than 30 µM.

As for `CCOc1cc(N)c([N+](=O)[O-])cc1C(=O)NC1CCN(CC2CC=CCC2)CC1` (stereo not given) [CINITAPRIDE], the AC50 was 2.3 nM in [2] and 9 nM in test [7].

For `COc1ccc(C(=O)N2CCN(c3ccc4c(c3)CCC(=O)N4)CC2)cc1OC` [VESNARINONE], in [1], the AC50 was more than 30 µM.

For the compound `CN1CC(=O)N2[C@H](c3ccc4c(c3)OCO4)c3[nH]c4ccccc4c3C[C@@H]2C1=O`, the half-maximal activity concentration (AC50) is more than 10000 nM in test [7] and more than 30 µM at Progesterone receptor.

Take `CC/C=C\C/C=C\C/C=C\CCCCCCCC(=O)O` [LINOLENIC ACID]: the AC50 in test [1] is more than 10 µM.

In the case of `CCN1CCC[C@H]1CNC(=O)c1cc(S(N)(=O)=O)ccc1OC` [LEVOSULPIRIDE], the AC50 in test [3] was more than 10 µM; in test [4], more than 10 µM; on Progesterone receptor, more than 30 µM.

In test [7], `C#CC1(OC(N)=O)CCCCC1` [ETHINAMATE] showed a half-maximal activity concentration (AC50) of more than 10000 nM.

With `CN1CCc2cccc3c2[C@H]1Cc1ccc(O)c(O)c1-3` [APOMORPHINE], the AC50 is 1270 nM in [2]; 964 nM in test [7]; more than 30 µM on Glucagon receptor; 2.37 µM in [4]; 26 µM on Progesterone receptor; more than 30 µM in test [5]. This compound also yielded a concentration at half-maximal activity (AC50) in [6] of more than 30 µM.

In the case of `C=C1CC[C@@]2(O)[C@H]3Cc4ccc(O)c5c4[C@@]2(CCN3CC2CC2)[C@H]1O5`, the AC50 in [1] was more than 30 µM.

In the case of `CN[C@@H](C)[C@H](O)c1ccccc1` [EPHEDRINE], the AC50 in test [2] is more than 10000 nM; in [3] it was more than 10 µM; at Glucagon receptor, more than 30 µM; in test [4], more than 10 µM; on Progesterone receptor it was more than 30 µM; in test [5], more than 30 µM. The AC50 in [6] was more than 30 µM.

On to `[H]/N=C(/N)c1ccc(NCc2nc3cc(C(=O)N(CCC(=O)O)c4ccccn4)ccc3n2C)cc1` [DABIGATRAN], for which the AC50 in test [1] is more than 30 µM.

Consider `Cc1cc2c(OCC(CNC(C)(C)C)OC(=O)c3ccccc3)cccc2[nH]1` (stereo not given) [BOPINDOLOL], for which, in [3], the activity was half-maximal at 0.0522 µM (AC50).

In the case of `CCNC(C)Cc1cccc(C(F)(F)F)c1` (stereo not given) [FENFLURAMINE], the AC50 (on Glucagon receptor; at Progesterone receptor; in test [5]; in [6]) was more than 30 µM in each case.

As to `CCCCCOC(=O)Nc1nc(=O)n([C@@H]2O[C@H](C)[C@@H](O)[C@H]2O)cc1F` [CAPECITABINE], the AC50 in test [1] is more than 30 µM.

In test [1], `CCCOc1ccc(C(=O)OCCN(CC)CC)cc1N` [PROPARACAINE] yielded an AC50 of more than 30 µM.

`Nc1ncnc2c1ncn2[C@@H]1O[C@H](COP(=O)(O)O)[C@@H](O)[C@H]1O` [ADENOSINE PHOSPHATE] displayed an AC50 in test [1] of more than 30 µM.

As for `COc1ccc2cccc(CCNC(C)=O)c2c1` [AGOMELATINE], the concentration at half-maximal activity (AC50) is 879 nM in [2]; more than 10 µM in test [3]; more than 30 µM on Glucagon receptor; more than 10 µM in test [4]; more than 30 µM on Progesterone receptor; more than 30 µM in test [5]. The half-maximal activity concentration (AC50) in [6] was more than 30 µM.

Regarding `CC(C)c1c(C(=O)Nc2ccccc2)c(-c2ccccc2)c(-c2ccc(F)cc2)n1CC[C@@H](O)C[C@@H](O)CC(=O)O` [ATORVASTATIN], the half-maximal activity concentration (AC50) was more than 10 µM in [3]; more than 30 µM at Glucagon receptor; more than 10 µM in test [4]; more than 30 µM on Progesterone receptor; more than 30 µM in test [5]; more than 30 µM in test [6].

`CCN(CC)CCOC(=O)c1ccc(N)cc1` [PROCAINE]: the half-maximal activity concentration (AC50) in test [3] is more than 10 µM; in test [4] it was more than 10 µM; at Progesterone receptor, more than 30 µM.

With `Nc1nc2ccc(OC(F)(F)F)cc2s1` [RILUZOLE], the AC50 in test [1] is more than 30 µM.

Consider `Cc1cccc(C)c1NC(=O)C1CCCCN1C` (stereo not given) [MEPIVACAINE], for which, in test [1], the AC50 was more than 30 µM.

`CC(Cc1ccccc1)NCCC(c1ccccc1)c1ccccc1` (stereo not given) [PRENYLAMINE]: the AC50 in [7] was 3380 nM; in test [3] it was 0.957 µM; on Progesterone receptor it was more than 30 µM.

Consider `C[C@H]1C[C@@H]2[C@H]([C@@H](O)C[C@@]3(C)[C@H]2CC[C@]3(O)C(=O)COC(=O)CCC(=O)O)[C@@]2(C)C=CC(=O)C=C12` [METHYLPREDNISOLONE HEMISUCCINATE], for which the concentration at half-maximal activity (AC50) in test [1] is more than 30 µM.

Take `CN1CC[C@]23CCCC[C@H]2[C@H]1Cc1ccc(O)cc13` [LEVORPHANOL]: the half-maximal activity concentration (AC50) in [4] stood at 19 µM. This lies in the double-digit micromolar range.

As for `C1COC(NC(C2CC2)C2CC2)=N1` [RILMENIDINE], the half-maximal activity concentration (AC50) was more than 10000 nM in test [7], 20.5 µM in test [3], 3.49 µM in [4] and more than 30 µM at Progesterone receptor.
